According to patent publication US9644175B2, “Antimicrobial amino-salicylic acid derivatives” (BASF SE, priority 2009, dated 2017):

Columns and labels:
Assay type in all cases: cell-based
[1] = tested on: Escherichia coli ATCC 10536; assay: Suspension test of compound in surfactants and shampoo; settings: 24 h, start 10^5 cfu/ml
Protocol: (§1) The following examples illustrate the invention. Unless indicated otherwise, percentages refer to percent by weight (b.w.), room temperature denotes a temperature from the range 20-24° C. The determination of bactericidal activity and fungicidal activity in surfactants or shampoo formulations of the present invention is measured in a suspension test according to trivial modifications of the European Standard methods EN 1040 and EN 1275, respectively. The compound of the invention is incorporated in an anionic surfactant, for example sodium laureth sulphate (Epicol ESB 70), or a non-ionic surfactant such as decyl glucoside (Plantacare 2000UP), or an amphoteric surfactant, for example cocamidopropyl betaine (Tego Betain F50). Each of the surfactants is tested at 10% a.i. Furthermore, the 5-amino-salicylic acid derivatives of the invention are incorporated in a typical shampoo formulation with the following composition: • 0.01 to 5% by weight of 5 amino-salicylic acid derivative, • 7.0% by weight sodium laureth-2-sulfate, • 2.5% by weight decyl glucoside • 4.0% by weight cocamidopropyl betaine, • 1.0% by weight NaCl and • water ad 100%. • pH 6 is adjusted with NaOH. The surfactant solutions and shampoo formulations tested contain 1% b.w. of the compound of the invention. The cell densities of the bacterial suspensions used as inoculums for the suspension tests are as follows (cfu=colony forming units): [table] The cell density in the test is adjusted to 10^5 cfu/ml. These test mixtures are incubated at room temperature (22° C.+/−2° C.) and aliquots of 1 ml test mixture are taken after set contact times for determination of the residual cell count. For inactivation of the antimicrobial compounds, the 1 ml aliquots are diluted in 1:10 steps with an aqueous solution containing 10% Tween 80 (a polyethoxylated sorbitan ester surfactant), 3% lecithin, 0.1% histidine and 0.5% sodium thiosulfate.

[2] = tested on: Pseudomonas aeruginosa ATCC 15442; assay: as above; settings: 24 h, start 10^5 cfu/ml
Protocol: as §1

[3] = tested on: Staphylococcus aureus ATCC 6538; assay: as above; settings: 24 h, start 10^5 cfu/ml
Protocol: as §1

[4] = tested on: Aspergillus niger ATCC 6275; assay: as above; settings: 7 days, start 10^5 cfu/ml
Protocol: as §1, with “respectively. The fungicidal activity of the compounds of the present invention is measured in a suspension test (trivial modification of the European Standard method EN 1275).” for “respectively.”

[5] = tested on: Candida albicans AJCC 10231; assay: as above; settings: 24 h, start 10^5 cfu/ml
Protocol: as §1, with “respectively. The fungicidal activity of the compounds of the present invention is measured in a suspension test (trivial modification of the European Standard method EN 1275).” for “respectively.”

[6] = tested on: Escherichia coli ATCC 10536; assay: Suspension test, bactericidal activity (modified EN 1040); settings: room temperature, start about 10^7 cfu/ml
Protocol: (§2) The following examples illustrate the invention. Unless indicated otherwise, percentages refer to percent by weight (b.w.), room temperature denotes a temperature from the range 20-24° C. The determination of bactericidal activity and fungicidal activity in surfactants or shampoo formulations of the present invention is measured in a suspension test according to trivial modifications of the European Standard methods EN 1040 and EN 1275, respectively. The bactericidal activity of the compounds of the present invention is measured in a suspension test (trivial modification of the European Standard method EN 1040). Substances listed in Table 1 are tested against gram positive and gram negative bacteria. The compound of the invention is dissolved in ethanol resulting in a 1% b.w. stock solution. The cell densities of the bacterial suspensions used as inoculums for the suspension test are as follows (cfu=colony forming units): [table] For the suspension tests, an appropriate concentration of the test compound is mixed with a bacterial suspension resulting in a final cell count in the mixture of about 10^7 cfu/ml. These test mixtures are incubated at room temperature (22° C.+/−2° C.) and aliquots of 1 ml test mixture containing the test bacteria are taken after set contact times for determination of the residual cell count of test bacteria. For inactivation of the antimicrobial compounds, the 1 ml aliquots are diluted in 1:10 steps with an aqueous solution containing 10% of Tween 80 (a polyethoxylated sorbitan ester surfactant), 3% lecithin, 0.1% histidine and 0.5% sodium thiosulfate.

[7] = tested on: Pseudomonas aeruginosa ATCC15442; assay: as above; settings: room temperature, start about 10^7 cfu/ml
Protocol: as §2

[8] = tested on: Staphylococcus aureus ATCC 6538; assay: as above; settings: room temperature, start about 10^7 cfu/ml
Protocol: as §2

[9] = tested on: Candida albicans ATCC 10231; assay: Suspension test, fungicidal activity (modified EN 1275), Table A; settings: contact time 24 h
Protocol: The following examples illustrate the invention. Unless indicated otherwise, percentages refer to percent by weight (b.w.), room temperature denotes a temperature from the range 20-24° C. The determination of bactericidal activity and fungicidal activity in surfactants or shampoo formulations of the present invention is measured in a suspension test according to trivial modifications of the European Standard methods EN 1040 and EN 1275, respectively. For the suspension tests, an appropriate concentration of the test compound is mixed with a bacterial suspension resulting in a final cell count in the mixture of about 10^7 cfu/ml. These test mixtures are incubated at room temperature (22° C.+/−2° C.) and aliquots of 1 ml test mixture containing the test bacteria are taken after set contact times for determination of the residual cell count of test bacteria. For inactivation of the antimicrobial compounds, the 1 ml aliquots are diluted in 1:10 steps with an aqueous solution containing 10% of Tween 80 (a polyethoxylated sorbitan ester surfactant), 3% lecithin, 0.1% histidine and 0.5% sodium thiosulfate. The fungicidal activity of the compounds of the present invention is measured in a suspension test (trivial modification of the European Standard method EN 1275). The compound of the invention is dissolved in ethanol resulting in a 1% b.w. solution of the compound. […]

[10] = 1% b.w. compound in amphoteric surfactant (cocamidopropyl betaine, 10% a.i.)
[11] = 1% b.w. compound in anionic surfactant (sodium laureth sulfate, 10% a.i.)
[12] = 1% b.w. compound in non-ionic surfactant (decyl glucoside, 10% a.i.)
[13] = 1% b.w. compound in shampoo formulation, pH 6

## CCCCCC(=O)Nc1ccc(O)c(C(=O)O)c1 [compound 596, 5-hexanoylamino-salicylic acid]
[1]; [10]
  log reduction: >3 log
  residual cell count: <100 cfu/ml
[1]; [11]
  log reduction: >3 log
  residual cell count: <100 cfu/ml
[1]; [12]
  log reduction: >3 log
  residual cell count: <100 cfu/ml
[1]; [13]
  log reduction: >3 log
  residual cell count: <100 cfu/ml
[2]; [10]
  log reduction: >3 log
  residual cell count: <100 cfu/ml
[2]; [11]
  log reduction: >3 log
  residual cell count: <100 cfu/ml
[2]; [12]
  log reduction: >3 log
  residual cell count: <100 cfu/ml
[3]; [10]
  log reduction: >3 log
  residual cell count: <100 cfu/ml
[3]; [11]
  log reduction: >3 log
  residual cell count: <100 cfu/ml
[3]; [12]
  log reduction: >3 log
  residual cell count: <100 cfu/ml
[3]; [13]
  log reduction: >3 log
  residual cell count: <100 cfu/ml
[4]; [10]
  log reduction: 2.3 log
  residual cell count: 1.2 × 10^3 cfu/ml
[4]; [11]
  log reduction: 2.1 log
  residual cell count: 1.7 × 10^3 cfu/ml
[4]; [12]
  log reduction: 1.1 log
  residual cell count: 1.9 × 10^4 cfu/ml
[5]; [10]
  log reduction: >3 log
  residual cell count: <100 cfu/ml
[5]; [11]
  log reduction: 1.2 log
  residual cell count: 1.4 × 10^4 cfu/ml
[5]; [12]
  log reduction: >3 log
  residual cell count: <100 cfu/ml
[6]; contact time 30 min
  log reduction: >5 log
  residual cell count: <100 cfu/ml
[7]; contact time 30 min
  log reduction: >5 log
  residual cell count: <100 cfu/ml
[8]; contact time 30 min
  log reduction: >5 log
  residual cell count: <100 cfu/ml
[9]
  log reduction: >4 log
  residual cell count: <100 cfu/ml

## CCCCCCCCCCCC(=O)Nc1ccc(O)c(C(=O)O)c1 [compound 597]
[8]; contact time 24 h
  log reduction: >5 log
  residual cell count: 1.6 × 10^3 cfu/ml

## O=C(O)c1cc(NC(=O)C2CCCCC2)ccc1O [compound 601, 5-cyclohexanoylamino-salicylic acid]
[6]; contact time 24 h
  log reduction: 4.3 log
  residual cell count: 9.1 × 10^2 cfu/ml
[7]; contact time 24 h
  log reduction: 4.8 log
  residual cell count: 6.1 × 10^2 cfu/ml
[8]; contact time 24 h
  log reduction: >5 log
  residual cell count: <100 cfu/ml
